Experiments:
Format in all cases: cell-based
[1] = test system: Pediococcus damnosus; assay: Growth promoting effect on lactic acid cocci of the genus Pediococcus, MRS medium, anaerobic (Example 6); details: strain JCM5886, MRS medium, αKG 0.1 to 4 or 1 to 4% by mass, malic acid 0.1 to 2 or 1 to 2% by mass, FIG. 8
Procedure: (§1) The lactic acid cocci of the genus Pediococcus indicated in Table 5 were used as the bacterial cells.
(§2) Cultivation was performed in a similar manner as described in Example 1, item (1), B (i), except that α-ketoglutaric acid (concentrations shown in FIG. 8A (0.1 to 4% by mass) and FIG. 8C (1 to 4% by mass)) and malic acid (concentrations shown in FIG. 8B (0.1 to 2% by mass) and FIG. 8D (1 to 2% by mass)) were each added, as the dicarboxylic acids, to the medium (anaerobic cultivation).
(§3) Measurement was performed in a similar manner as described in Example 1, item (1), C.
(§4) Analysis was performed in a similar manner as described in Example 1, item (1), D.

[2] = test system: Pediococcus acidilactici; assay: as above; details: strain JCM8797, MRS medium, αKG 0.1 to 4 or 1 to 4% by mass, malic acid 0.1 to 2 or 1 to 2% by mass, FIG. 8
Procedure: as §1, §2, §3, §4

[3] = test system: Lactococcus lactis subsp. lactis JCM5805 strain; assay: Growth promoting effect, GM17 medium, aerobic cultivation (OD600); details: 0.5 to 2% by mass, 30° C. 24 hours, FIG. 4
Procedure: (§5) The lactic acid coccus described in Example 1, item (1), A was used.
The medium used was GM17 medium. […] Next, the bacterial cells were inoculated (seeded) so that the concentration of the bacterial cells was 0.1% (v/v) with respect to 10 ml of the prepared medium, and the medium inoculated with the bacterial cells was placed in an automatic cultivation searching device OT-201 (Oriental Instruments; sometimes referred to as “bioplotter” herein), and cultivated at 30° C. for 24 hours (stirring intensity condition: Medium).
as §3, §4

[4] = test system: Lactococcus lactis subsp. lactis JCM5805 strain; assay: Growth promoting effect, GM17 medium, anaerobic cultivation (OD600); details: 0.5 to 2% by mass, 30° C. 24 hours, FIG. 3
Source text: as §5
The medium used was a medium obtained by adding 20 g/L of glucose to M17 medium (Difco M17 Broth, BD; the composition thereof is indicated in Table 2; the same applies hereinafter in the present specification) (sometimes referred to as “GM17 medium” herein). […] Next, the bacterial cells were inoculated (seeded) in a 15-ml conical tube (FALCON) so that the concentration of the bacterial cells was 0.1% (v/v) with respect to 10 ml of the prepared medium, and cultivated at 30° ° C. for 24 hours in an incubator (TOKYO […] CO., LTD.) (static cultivation).
as §3, §4

[5] = test system: Lactococcus lactis subsp. lactis JCM5805 strain; assay: Growth promoting effect, MRS medium, anaerobic cultivation (OD600)
Procedure: A Lactococcus lactis subsp. lactis JCM5805 strain was used as the lactic acid coccus.
The bacteria were counted by measuring the OD600 (turbidity) of the medium using an absorbance meter (Biochrom GeneQuant 1300).
Measured values were expressed as mean±standard error. One-way analysis of variance was followed by Tukey's test, and cases where p<0.05 relative to the control group were evaluated as having a significant difference.

[6] = test system: Lactococcus lactis subsp. lactis JCM5805 strain; assay: Growth promoting effect, MRS medium, aerobic cultivation (OD600); details: 0.5 to 2.0% by mass, 30° C. 24 hours, FIG. 2
Procedure: A Lactococcus lactis subsp. lactis JCM5805 strain was used as the lactic acid coccus. The medium used was MRS medium. […] Next, the bacterial cells were inoculated (seeded) so that the concentration of the bacterial cells was 0.1% (v/v) with respect to 10 ml of the medium, and the medium inoculated with the bacterial cells was placed in an automatic cultivation searching device OT-201 (Oriental Instruments: sometimes referred to as “bioplotter” herein), and cultivated at 30° ° C. for 24 hours (stirring intensity condition: Medium). The bacteria were counted by measuring the OD600 (turbidity) of the medium using an absorbance meter (Biochrom GeneQuant 1300). Measured values were expressed as mean±standard error. One-way analysis of variance was followed by Tukey's test, and cases where p<0.05 relative to the control group were evaluated as having a significant difference.

[7] = 0.01 to 4.0% by mass, 30° C. 24 hours, FIG. 1A/1C

SMILES	growth of the lactic acid cocci belonging to the genus Pediococcus (OD600) as compared with the control [1]	growth of the lactic acid cocci belonging to the genus Pediococcus (OD600) as compared with the control [2]	growth of the lactic acid coccus (OD600) as compared with the control [3]	growth of the lactic acid coccus (OD600) as compared with the control [4]	growth of the lactic acid coccus (OD600) as compared with the control [5, 7]	growth of the lactic acid coccus (OD600) as compared with the control [6]	growth of the lactic acid coccus (OD600) as compared with the control ([5]; citric acid 0.25 to 1% by mass, FIG. 7)
O=C(O)CCC(=O)C(=O)O [αKG, α-ketoglutaric acid]	significantly promoted in a concentration-dependent manner	significantly promoted in a concentration-dependent manner	promoted in a concentration-dependent manner	significantly promoted	significantly promoted in a concentration-dependent manner	significantly promoted in a concentration-dependent manner	
O=C(O)CC(O)C(=O)O (stereo not shown) [malic acid]	significantly promoted in a concentration-dependent manner	significantly promoted in a concentration-dependent manner	promoted in a concentration-dependent manner	significantly promoted	significantly promoted in a concentration-dependent manner	significantly promoted in a concentration-dependent manner	
O=C(O)CC(O)(CC(=O)O)C(=O)O [citric acid, reference compound]							significantly promoted

From patent US20240191177A1, “GROWTH PROMOTER FOR LACTIC ACID COCCI” (KIRIN HOLDINGS KABUSHIKI KAISHA, priority 2002, published 2024)
